Publication PMC4770307, “New Synthetic Routes to Triazolo-benzodiazepine Analogues: Expanding the Scope of the Bump-and-Hole Approach for Selective Bromo and Extra-Terminal (BET) Bromodomain Inhibition” (Journal of Medicinal Chemistry, 2015)

Key:
Brd2(2) [1] = target: T1, Brd2(2) (Homo sapiens, UniProt P25440); experiment: Differential scanning fluorimetry (DSF) thermal shift; format: binding; conditions: compound 10 μM (LightCycler480) or 30 μM (Mx3005P), read-out: Thermal stabilization (ΔTm)
T1 construct: first bromodomain (e.g., Brd2(1)) versus second bromodomain (e.g., Brd2(2)); His6 (TEV-cleavable) (N); made in house; host or cells: E. coli BL21(DE3); plasmid a gift of the SGC Oxford

Brd2(1) [2] = target: T2, Brd2(1) (Homo sapiens, UniProt P25440); experiment: as above; format: binding; conditions: compound 10 μM (LightCycler480) or 30 μM (Mx3005P), read-out: Thermal stabilization (ΔTm)
T2 construct: first bromodomain (e.g., Brd2(1)) versus second bromodomain (e.g., Brd2(2)); His6 (TEV-cleavable) (N); made in house; host or cells: E. coli BL21(DE3); plasmid a gift of the SGC Oxford

Brd2(2)W370H = target: T3, Brd2(2)W370H (Homo sapiens, UniProt P25440, W370H); experiment: as above; format: binding; conditions: compound 10 μM (LightCycler480) or 30 μM (Mx3005P), read-out: Thermal stabilization (ΔTm)
T3 construct: first bromodomain (e.g., Brd2(1)) versus second bromodomain (e.g., Brd2(2)); His6 (TEV-cleavable) (N); made in house; host or cells: E. coli BL21(DE3)

Brd2(1)W097H = target: T4, Brd2(1)W097H (Homo sapiens, UniProt P25440, W97H); experiment: as above; format: binding; conditions: compound 10 μM (LightCycler480) or 30 μM (Mx3005P), read-out: Thermal stabilization (ΔTm)
T4 construct: first bromodomain (e.g., Brd2(1)) versus second bromodomain (e.g., Brd2(2)); His6 (TEV-cleavable) (N); made in house; host or cells: E. coli BL21(DE3)

Brd2(2)W370F = target: T5, Brd2(2)W370F (Homo sapiens, UniProt P25440, W370F); experiment: as above; format: binding; conditions: compound 10 μM (LightCycler480) or 30 μM (Mx3005P), read-out: Thermal stabilization (ΔTm)
T5 construct: first bromodomain (e.g., Brd2(1)) versus second bromodomain (e.g., Brd2(2)); His6 (TEV-cleavable) (N); made in house; host or cells: E. coli BL21(DE3)

Brd2(1)W097F = target: T6, Brd2(1)W097F (Homo sapiens, UniProt P25440, W97F); experiment: as above; format: binding; conditions: compound 10 μM (LightCycler480) or 30 μM (Mx3005P), read-out: Thermal stabilization (ΔTm)
T6 construct: first bromodomain (e.g., Brd2(1)) versus second bromodomain (e.g., Brd2(2)); His6 (TEV-cleavable) (N); made in house; host or cells: E. coli BL21(DE3)

Brd4(2) = Brd4(2) (Homo sapiens, UniProt O60885); experiment: Isothermal titration calorimetry (ITC); format: binding; conditions: ITC at 30 °C, […] DMSO
Brd2(1) [3] = target: T2, Brd2(1); experiment: Isothermal titration calorimetry (ITC); format: binding
Brd2(2) [4] = target: T1, Brd2(2); experiment: Isothermal titration calorimetry (ITC); format: binding
Brd2(2) [5] = experiment: Isothermal titration calorimetry (ITC); format: binding; conditions: Brd2(2) over Brd2(1), from ITC Kd's
Brd4(1) = Brd4(1) (Homo sapiens, UniProt O60885); experiment: Isothermal titration calorimetry (ITC); format: binding; conditions: ITC at 30 °C, […] DMSO
Brd2(1)V103A = target: T7, Brd2(1)V103A (Homo sapiens, UniProt P25440, V103A); experiment: Differential scanning fluorimetry (DSF) thermal shift; format: binding; conditions: compound 10 μM (LightCycler480) or 30 μM (Mx3005P), read-out: Thermal stabilization (ΔTm)
T7 construct: first bromodomain (e.g., Brd2(1)) versus second bromodomain (e.g., Brd2(2)); His6 (TEV-cleavable) (N); made in house; host or cells: E. coli BL21(DE3)

Brd2(2)V376A = target: T8, Brd2(2)V376A (Homo sapiens, UniProt P25440, V376A); experiment: as above; format: binding; conditions: compound 10 μM (LightCycler480) or 30 μM (Mx3005P), read-out: Thermal stabilization (ΔTm)
T8 construct: first bromodomain (e.g., Brd2(1)) versus second bromodomain (e.g., Brd2(2)); His6 (TEV-cleavable) (N); made in house; host or cells: E. coli BL21(DE3)

Brd2(2)L383A [6] = target: T9, Brd2(2)L383A (Homo sapiens, UniProt P25440, L383A); experiment: as above; format: binding; conditions: compound 10 μM (LightCycler480) or 30 μM (Mx3005P), read-out: Thermal stabilization (ΔTm)
T9 construct: first bromodomain (e.g., Brd2(1)) versus second bromodomain (e.g., Brd2(2)); His6 (TEV-cleavable) (N); made in house; host or cells: E. coli BL21(DE3)

Brd2(1)L110I [7] = target: T10, Brd2(1)L110I (Homo sapiens, UniProt P25440, L110I); experiment: Isothermal titration calorimetry (ITC); format: binding; conditions: ITC at 25 °C
T10 construct: first bromodomain (e.g., Brd2(1)) versus second bromodomain (e.g., Brd2(2)); His6 (TEV-cleavable) (N); made in house; host or cells: E. coli BL21(DE3)

Brd2(2)L383I [8] = target: T11, Brd2(2)L383I (Homo sapiens, UniProt P25440, L383I); experiment: Differential scanning fluorimetry (DSF) thermal shift; format: binding; conditions: compound 10 μM (LightCycler480) or 30 μM (Mx3005P), read-out: Thermal stabilization (ΔTm)
T11 construct: first bromodomain (e.g., Brd2(1)) versus second bromodomain (e.g., Brd2(2)); His6 (TEV-cleavable) (N); made in house; host or cells: E. coli BL21(DE3)

Brd2(1)L110A [9] = target: T12, Brd2(1)L110A (Homo sapiens, UniProt P25440, L110A); experiment: Isothermal titration calorimetry (ITC); format: binding; conditions: ITC at 25 °C
T12 construct: first bromodomain (e.g., Brd2(1)) versus second bromodomain (e.g., Brd2(2)); His6 (TEV-cleavable) (N); made in house; host or cells: E. coli BL21(DE3)

Brd2(2)L383I [10] = target: T11, Brd2(2)L383I; experiment: Isothermal titration calorimetry (ITC); format: binding; conditions: ITC at 25 °C
Brd2(1)L110I [11] = target: T10, Brd2(1)L110I; experiment: Differential scanning fluorimetry (DSF) thermal shift; format: binding; conditions: compound 10 μM (LightCycler480) or 30 μM (Mx3005P), read-out: Thermal stabilization (ΔTm)
Brd2(1)L110A [12] = target: T12, Brd2(1)L110A; experiment: as above; format: binding; conditions: compound 10 μM (LightCycler480) or 30 μM (Mx3005P), read-out: Thermal stabilization (ΔTm)
Brd2(2)L383A [13] = target: T9, Brd2(2)L383A; experiment: Isothermal titration calorimetry (ITC); format: binding; conditions: ITC at 25 °C
Brd2(2) [14] = conditions: reported Kd; cited from earlier work
[15] = tested on: WT and mutant Brd2(1) and Brd2(2) proteins; experiment: DSF, WT and mutant proteins (statements in words); format: binding; conditions: mutant compared with WT Brd2 proteins
[16] = tested on: leucine/alanine mutant BET bromodomains; set-up: method as in PMID 25323695; conditions: cited from earlier work

T12 sequence (P25440 74-180 L110A limits assumed): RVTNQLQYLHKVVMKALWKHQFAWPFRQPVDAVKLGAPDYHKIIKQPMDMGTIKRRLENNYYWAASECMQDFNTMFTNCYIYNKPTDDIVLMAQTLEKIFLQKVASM
T2 sequence (P25440 74-180 limits assumed): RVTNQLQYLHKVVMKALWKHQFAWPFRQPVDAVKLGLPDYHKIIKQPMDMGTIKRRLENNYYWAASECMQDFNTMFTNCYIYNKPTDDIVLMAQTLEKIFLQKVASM
T3 sequence (P25440 344-453 W370H limits assumed): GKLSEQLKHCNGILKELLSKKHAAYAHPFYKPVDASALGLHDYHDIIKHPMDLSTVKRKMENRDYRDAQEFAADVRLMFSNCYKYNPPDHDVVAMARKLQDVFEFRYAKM
T11 sequence (P25440 344-453 L383I limits assumed): as the sequence (P25440 344-453 W370H limits assumed) above, with H27W, L40I counted along it
T10 sequence (P25440 74-180 L110I limits assumed): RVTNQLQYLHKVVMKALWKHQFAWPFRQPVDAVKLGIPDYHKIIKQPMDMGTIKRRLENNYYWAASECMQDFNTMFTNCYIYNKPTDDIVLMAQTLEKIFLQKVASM
T5 sequence (P25440 344-453 W370F limits assumed): as the sequence (P25440 344-453 W370H limits assumed) above, with H27F counted along it
T9 sequence (P25440 344-453 L383A limits assumed): as the sequence (P25440 344-453 W370H limits assumed) above, with H27W, L40A counted along it
T4 sequence (P25440 74-180 W97H limits assumed): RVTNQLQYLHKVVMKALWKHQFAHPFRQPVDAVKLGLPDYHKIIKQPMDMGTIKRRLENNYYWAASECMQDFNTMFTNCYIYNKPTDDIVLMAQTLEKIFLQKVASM
T1 sequence (P25440 344-453 limits assumed): as the sequence (P25440 344-453 W370H limits assumed) above, with H27W counted along it
T6 sequence (P25440 74-180 W97F limits assumed): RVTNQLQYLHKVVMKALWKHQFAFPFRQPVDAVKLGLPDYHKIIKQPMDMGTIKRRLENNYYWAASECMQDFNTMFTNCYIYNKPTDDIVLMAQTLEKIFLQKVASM
T7 sequence (P25440 74-180 V103A limits assumed): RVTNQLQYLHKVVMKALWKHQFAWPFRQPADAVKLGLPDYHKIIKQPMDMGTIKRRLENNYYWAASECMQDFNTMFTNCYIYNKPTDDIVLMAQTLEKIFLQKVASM
T8 sequence (P25440 344-453 V376A limits assumed): as the sequence (P25440 344-453 W370H limits assumed) above, with H27W, V33A counted along it

SMILES	ΔTm at 10 µM (Brd2(2) [1])	ΔTm at 10 µM (Brd2(1) [2])	ΔTm at 10 µM (Brd2(2)W370H)	ΔTm at 10 µM (Brd2(1)W097H)	ΔTm at 10 µM (Brd2(2)W370F)	ΔTm at 10 µM (Brd2(1)W097F)	further results
COC(=O)CC1N=C(c2ccc(Cl)c(C)c2)c2cc(OC)ccc2-n2c(C)nnc21 (stereo not drawn) [compound 25]	3.2 ± 0.1 °C	1.5 ± 0.2 °C	1 ± 0.3 °C	0.2 ± 0.2 °C	1.5 °C	-0.1 °C	
COC(=O)CC1N=C(c2cc(Cl)ccc2Cl)c2cc(OC)ccc2-n2c(C)nnc21 (stereo not drawn) [compound 27]	2.5 ± 0.2 °C	1.2 ± 0.2 °C	-0.4 °C	-0.4 °C	0.3 °C	0 °C	
COC(=O)CC1N=C(c2cccc3[nH]ccc23)c2cc(OC)ccc2-n2c(C)nnc21 (stereo not drawn) [compound 28]	7.7 ± 0.2 °C	6.8 ± 0.6 °C	2.7 ± 0.4 °C	0.6 ± 0.3 °C	5.2 ± 0.1 °C	1.9 ± 0.5 °C	Kd (Brd4(2)): 50 nM; Kd (Brd2(1) [3]; ITC at 30 °C, […] DMSO): 780 nM; Kd (Brd2(2) [4]; ITC at 30 °C, […] DMSO): 45 nM; selectivity for the second over the first bromodomain (Brd2(2) [5]): ca. 20 fold; Kd (Brd4(1)): 520 nM
COC(=O)CC1N=C(c2ccc(Cl)cc2)c2cc(OC)cc(C)c2-n2c(C)nnc21 (stereo not drawn) [compound 15]	4 ± 0.1 °C	0.7 ± 0.2 °C					ΔTm at 10 µM (Brd2(1)V103A): 0.5 ± 0.3 °C; ΔTm at 10 µM (Brd2(2)V376A): 1.2 ± 0.1 °C
COC(=O)[C@H](C)[C@@H]1N=C(c2ccc(Cl)cc2)c2cc(OC)ccc2-n2c(C)nnc21 [ME]	5.6 ± 0.1 °C	3.2 ± 0.2 °C					ΔTm at 10 µM (Brd2(2)L383A [6]): 9.3 ± 0.2 °C; Kd (Brd2(1)L110I [7]): 260 ± 40 nM; ΔH (binding enthalpy) (Brd2(1)L110I [7]): –8.5 ± 0.1 kcal/mol; ΔTm at 10 µM (Brd2(2)L383I [8]): 9.6 ± 0.1 °C; Kd (Brd2(1) [3]; ITC at 25 °C): 1470 ± 180 nM; ΔH (binding enthalpy) (Brd2(1) [3]; ITC at 25 °C): –8.6 ± 0.2 kcal/mol; Kd (Brd2(1)L110A [9]): 17 ± 4 nM; ΔH (binding enthalpy) (Brd2(1)L110A [9]): –16.8 ± 0.2 kcal/mol; Kd (Brd2(2) [4]; ITC at 25 °C): 300 ± 80 nM; ΔH (binding enthalpy) (Brd2(2) [4]; ITC at 25 °C): –5.4 ± 0.1 kcal/mol; Kd (Brd2(2)L383I [10]): 27 ± 12 nM; ΔH (binding enthalpy) (Brd2(2)L383I [10]): –9.8 ± 0.1 kcal/mol; ΔTm at 10 µM (Brd2(1)L110I [11]): 5.7 ± 0.7 °C; ΔTm at 10 µM (Brd2(1)L110A [12]): 7.9 ± 0.2 °C; Kd (Brd2(2)L383A [13]): 22 ± 4 nM; ΔH (binding enthalpy) (Brd2(2)L383A [13]): –12.6 ± 0.1 kcal/mol
COC(=O)CC1N=C(c2ccc(Cl)cc2C)c2cc(OC)ccc2-n2c(C)nnc21 (stereo not drawn) [compound 24]	6.6 ± 0.2 °C	6.3 ± 0.1 °C	1.1 ± 0.2 °C	0.9 ± 0.3 °C	2.8 ± 0.1 °C	1.4 ± 0.2 °C	
COC(=O)CC1N=C(c2cc(C)ccc2C)c2cc(OC)ccc2-n2c(C)nnc21 (stereo not drawn) [compound 26]	3.5 ± 0.1 °C	1.8 ± 0.2 °C	-0.1 °C	-0.4 °C	0.6 ± 0.1 °C	0.1 ± 0.2 °C	
CC(=O)NCCCCn1c2c(c3ccccc31)C(=O)NCC2 [olinone]							Kd (Brd2(2) [14]): > 300 µM
COC(=O)[C@@H](C)[C@@H]1N=C(c2ccc(Cl)cc2)c2cc(OC)ccc2-n2c(C)nnc21 [compound 16]	0.2 ± 0.2 °C	-0.3 °C					ΔTm at 10 µM (Brd2(2)L383A [6]): 0.8 ± 0.6 °C; ΔTm at 10 µM (Brd2(2)L383I [8]): 0.3 ± 0.2 °C; thermal stabilization, in words [15]: did not induce a significant stabilization; ΔTm at 10 µM (Brd2(1)L110A [12]): 1.6 ± 0.2 °C
CC[C@@H](C(=O)OC)[C@@H]1N=C(c2ccc(Cl)cc2)c2cc(OC)ccc2-n2c(C)nnc21 [ET (6)]							selectivity for L/A mutants relative to WT BET bromodomains, average ([16]; average across the entire subfamily): 160 fold; affinity for leucine/alanine mutant BET bromodomains ([16]; in words): low nanomolar affinity
